Measurements reported in ChEMBL document CHEMBL1156206, “Pyrazolone-fused combretastatins and their precursors: synthesis, cytotoxicity, antitubulin activity and molecular modeling studies” (Bioorg Med Chem, 2010).
One block for each compound: values may come before it. Active and inactive are the calls of the source. The rule behind the calls is not given here.

How the values were obtained:
[1] = Inhibition of tubulin polymerization at 20 uM relative to control
[2] = tested on: HeLa; assay: Cytotoxicity against human HeLa cells after 72 hrs by MTT assay; type: functional, cell-based
[3] = tested on: HEp-2; assay: Cytotoxicity against human Hep2 cells after 72 hrs by MTT assay; type: functional, cell-based; conditions: HEp-2, 72 h
[4] = tested on: HEp-2; assay: Cytotoxicity against human cisplatin-resistant Hep2 cells after 72 hrs by MTT assay; type: functional, cell-based; conditions: HEp-2, 72 h
[5] = tested on: RT-112; assay: Cytotoxicity against human RT112 cells after 72 hrs by MTT assay; type: functional, cell-based; conditions: RT-112, 72 h
[6] = tested on: T-24; assay: Cytotoxicity against human T24 cells after 72 hrs by MTT assay; type: functional, cell-based; conditions: T-24, 72 h
[7] = tested on: MIA PaCa-2; assay: Cytotoxicity against human MIAPaCa2 cells after 72 hrs by MTT assay; type: functional, cell-based; conditions: MIA PaCa-2, 72 h
[8] = tested on: SW-620; assay: Cytotoxicity against human SW620 cells after 72 hrs by MTT assay; type: functional, cell-based; conditions: SW-620, 72 h
[9] = Inhibition of tubulin polymerization
[10] = tested on: HeLa; assay: Cell cycle arrest in human HeLa cells assessed as accumulation of cells in G0/1 phase at 0.02 uM after 24 hrs using propidium iodide by flow cytometry; type: functional
[11] = tested on: HeLa; assay: Cell cycle arrest in human HeLa cells assessed as accumulation of cells in G0/1 phase at 0.2 uM after 24 hrs using propidium iodide by flow cytometry; type: functional
[12] = tested on: HeLa; assay: Cell cycle arrest in human HeLa cells assessed as accumulation of cells in G0/1 phase at 2.2 uM after 24 hrs using propidium iodide by flow cytometry; type: functional
[13] = tested on: HeLa; assay: Cell cycle arrest in human HeLa cells assessed as accumulation of cells in S phase at 0.02 uM after 24 hrs using propidium iodide by flow cytometry; type: functional
[14] = tested on: HeLa; assay: Cell cycle arrest in human HeLa cells assessed as accumulation of cells in S phase at 0.2 uM after 24 hrs using propidium iodide by flow cytometry; type: functional
[15] = tested on: HeLa; assay: Cell cycle arrest in human HeLa cells assessed as accumulation of cells in S phase at 2.2 uM after 24 hrs using propidium iodide by flow cytometry; type: functional
[16] = tested on: HeLa; assay: Cell cycle arrest in human HeLa cells assessed as accumulation of cells in G2/M phase at 0.02 uM after 24 hrs using propidium iodide by flow cytometry; type: functional
[17] = tested on: HeLa; assay: Cell cycle arrest in human HeLa cells assessed as accumulation of cells in G2/M phase at 0.2 uM after 24 hrs using propidium iodide by flow cytometry; type: functional
[18] = tested on: HeLa; assay: Cell cycle arrest in human HeLa cells assessed as accumulation of cells in G2/M phase at 2.2 uM after 24 hrs using propidium iodide by flow cytometry; type: functional
[19] = tested on: HeLa; assay: Induction of apoptosis in human HeLa cells assessed as cells containing hypodiploid DNA at 0.02 uM after 24 hrs by flow cytometry; type: functional
[20] = tested on: HeLa; assay: Induction of apoptosis in human HeLa cells assessed as cells containing hypodiploid DNA at 0.2 uM after 24 hrs by flow cytometry; type: functional
[21] = tested on: HeLa; assay: Induction of apoptosis in human HeLa cells assessed as cells containing hypodiploid DNA at 2.2 uM after 24 hrs by flow cytometry; type: functional
[22] = tested on: HeLa; assay: Induction of microtubule network disruption in human HeLa cells at 0.02 uM after 24 hrs by immunofluorescence assay; type: functional, cell-based
[23] = tested on: HeLa; assay: Induction of microtubule network disruption in human HeLa cells at 0.2 uM after 24 hrs by immunofluorescence assay; type: functional, cell-based
[24] = tested on: HeLa; assay: Induction of microtubule network disruption in human HeLa cells at 2.2 uM after 24 hrs by immunofluorescence assay; type: functional, cell-based
[25] = Homo sapiens, HeLa, 72 h, read-out: IC50

SMILES: COC(=O)NNC(=O)/C(=C/c1ccc(OC)c(OC(C)=O)c1)c1cc(OC)c(OC)c(OC)c1
inhibition [1]: 25% | IC50 [2, 25]: 498 nM

SMILES: COc1ccc(/C=C\c2cc(OC)c(OC)c(OC)c2)cc1O [COMBRETASTATIN A4]
inhibition [1]: 89% | IC50 [2, 25]: 2 nM | IC50 [3]: 5.5 nM | IC50 [4]: 5.2 nM | IC50 [5]: 21.6 nM | IC50 [6]: 8.7 nM | IC50 [7]: 7.2 nM | IC50 [8]: 23 nM | IC50 [9]: 1700 nM | Activity [18]: 91.1% | Activity [22]: Active

SMILES: COC(=O)n1[nH]c(=O)c(-c2cc(OC)c(OC)c(OC)c2)c1-c1ccc(OC)c(OC)c1
inhibition [1]: 3% | IC50 [2, 25]: 36300 nM

SMILES: COC(=O)n1[nH]c(=O)c(-c2cc(OC)c(OC)c(OC)c2)c1-c1ccc2ccccc2c1
inhibition [1]: 3% | IC50 [2, 25]: 523 nM

SMILES: COc1ccc(-c2[nH][nH]c(=O)c2-c2cc(OC)c(OC)c(OC)c2)cc1F
inhibition [1]: 100% | IC50 [2, 25]: 158 nM | IC50 [3]: 1180 nM | IC50 [4]: 684 nM | IC50 [5]: 3320 nM | IC50 [6]: 1150 nM | IC50 [7]: 556 nM | IC50 [8]: 487 nM

SMILES: COc1ccc(-c2[nH][nH]c(=O)c2-c2cc(OC)c(OC)c(OC)c2)cc1OC
inhibition [1]: 31% | IC50 [2, 25]: 5270 nM

SMILES: COc1ccc(-c2c(-c3cc(OC)c(OC)c(OC)c3)[nH][nH]c2=O)cc1OC
inhibition [1]: 4% | IC50 [2, 25]: > 50000 nM

SMILES: COC(=O)n1[nH]c(=O)c(-c2cc(OC)c(OC)c(OC)c2)c1-c1cccc(F)c1
inhibition [1]: 1% | IC50 ([2]; hela): Not Active

SMILES: COc1ccc(-c2[nH][nH]c(=O)c2-c2cc(OC)c(OC)c(OC)c2)cc1O
inhibition [1]: 99% | IC50 [2, 25]: 176 nM | IC50 [3]: 1140 nM | IC50 [4]: 709 nM | IC50 [5]: 2080 nM | IC50 [6]: 619 nM | IC50 [7]: 462 nM | IC50 [8]: 543 nM | IC50 [9]: 1700 nM

SMILES: COc1ccc(-c2c(-c3cc(OC)c(OC)cc3OC)[nH][nH]c2=O)cc1OC
inhibition [1]: 0% | IC50 [2, 25]: > 50000 nM

SMILES: COC(=O)NNC(=O)/C(=C/c1ccc(OC)c(OC)c1)c1cc(OC)c(OC)c(OC)c1
inhibition [1]: 0% | IC50 [2, 25]: > 50000 nM

SMILES: COC(=O)n1[nH]c(=O)c(-c2cc(OC)c(OC)c(OC)c2)c1-c1cccc2ccccc12
inhibition [1]: 7% | IC50 [2, 25]: > 50000 nM

SMILES: COC(=O)NNC(=O)/C(=C/c1ccc(OC)c(F)c1)c1cc(OC)c(OC)c(OC)c1
inhibition [1]: 66% | IC50 [2, 25]: 667 nM

SMILES: COC(=O)n1[nH]c(=O)c(-c2cc(OC)c(OC)c(OC)c2)c1-c1ccc(OC)cc1
inhibition [1]: 0% | IC50 [2, 25]: 959 nM

SMILES: COc1ccc(-c2[nH][nH]c(=O)c2-c2cc(OC)c(OC)c(OC)c2)cc1
inhibition [1]: 100% | IC50 [2, 25]: 152 nM | IC50 [3]: 529 nM | IC50 [4]: 615 nM | IC50 [5]: 1890 nM | IC50 [6]: 1160 nM | IC50 [7]: 575 nM | IC50 [8]: 455 nM | IC50 [9]: 2600 nM

Second part, led by results:

inhibition [1]: 2%
SMILES: COC(=O)n1[nH]c(=O)c(-c2ccc(OC)c(OC)c2)c1-c1cc(OC)c(OC)cc1OC
IC50 ([2]; hela): Not Active

inhibition [1]: 97% | IC50 [9]: 2700 nM
SMILES: COC(=O)NNC(=O)/C(=C/c1ccc2ccccc2c1)c1cc(OC)c(OC)c(OC)c1
IC50 [2, 25]: 48 nM | IC50 [3]: 54 nM | IC50 [4]: 51 nM | IC50 [5]: 196 nM | IC50 [6]: 185 nM | IC50 [7]: 127 nM | IC50 [8]: 74.3 nM | Activity [10]: 60.2% | Activity [11]: 2.7% | Activity [12]: 1.2% | Activity [13]: 28.3% | Activity [14]: 10.8% | Activity [15]: 7.9% | Activity [16]: 11.5% | Activity [17]: 86.6% | Activity [18]: 90.5% | Activity [19]: 6.9% | Activity [20]: 21.1% | Activity [21]: 21.4% | Activity [22]: inactive | Activity [23]: Active | Activity [24]: Active

inhibition [1]: 0%
SMILES: COC(=O)n1[nH]c(=O)c(-c2ccc(OC)c(OC)c2)c1-c1cc(OC)c(OC)c(OC)c1
IC50 ([2]; hela): Not Active

inhibition [1]: 55%
SMILES: COC(=O)NNC(=O)/C(=C/c1cccc2ccccc12)c1cc(OC)c(OC)c(OC)c1
IC50 [2, 25]: 1300 nM

inhibition [1]: 10%
SMILES: COC(=O)NNC(=O)/C(=C/c1cccc(F)c1)c1cc(OC)c(OC)c(OC)c1
IC50 [2, 25]: > 50000 nM

inhibition [1]: 98% | IC50 [9]: 1900 nM
SMILES: COc1cc(-c2c(-c3ccc4ccccc4c3)[nH][nH]c2=O)cc(OC)c1OC
IC50 [2, 25]: 114 nM

inhibition [1]: 0%
SMILES: COc1cc(-c2c(-c3cccc(F)c3)[nH][nH]c2=O)cc(OC)c1OC
IC50 [2, 25]: > 50000 nM

inhibition [1]: 0%
SMILES: COC(=O)NNC(=O)/C(=C/c1cc(OC)c(OC)c(OC)c1)c1ccc(OC)c(OC)c1
IC50 [2, 25]: > 50000 nM

inhibition [1]: 0%
SMILES: COc1cc(-c2c(-c3cccc4ccccc34)[nH][nH]c2=O)cc(OC)c1OC
IC50 [2, 25]: > 50000 nM

inhibition [1]: 0%
SMILES: COC(=O)n1[nH]c(=O)c(-c2cc(OC)c(OC)c(OC)c2)c1-c1ccc(OC)c(OC(C)=O)c1
IC50 [2, 25]: 337 nM

inhibition [1]: 26%
SMILES: COC(=O)NNC(=O)/C(=C/c1ccc(OC)cc1)c1cc(OC)c(OC)c(OC)c1
IC50 [2, 25]: 1310 nM

inhibition [1]: 0%
SMILES: COC(=O)NNC(=O)/C(=C/c1cc(OC)c(OC)cc1OC)c1ccc(OC)c(OC)c1
IC50 ([2]; hela): Not Active

inhibition [1]: 9%
SMILES: COC(=O)n1[nH]c(=O)c(-c2cc(OC)c(OC)c(OC)c2)c1-c1ccc(OC)c(F)c1
IC50 [2, 25]: 1720 nM
